This is an account of results in patent US8188135B2, “Compounds as cannabinoid receptor ligands” (priority 2008, dated 2012).

Like-named read-outs stand apart in the source and are kept apart here. Bounds are passed on as bounds.

Data set [1] is described as follows: pharmacokinetic studies in rats. Conditions: male, Sprague-Dawley, rat; for clearance / half-life: iv; for bioavailability: po. How it is done: Male Sprague-Dawley rats, weighing 250-400 g, were obtained from Charles Rivers Laboratories. Pharmacokinetic studies were conducted in three groups of rats; each group contained three animals. All groups were dosed with a solution formulation. The first group of three rats received an intravenous dose, administered under isoflurane anesthetic. The second group received an intraperitoneal dose and the third group received an oral dose, administered by gavage. Sequential blood samples were obtained from a tail vein of each animal for 8-24 hours after dosing. Plasma was separated by centrifugation and stored frozen until analysis.
Half life […] and plasma clearance values are based on intravenous administration (3 micromole/kg).
Half life (t1/2) and plasma clearance values are based on intravenous administration (3 micromole/kg).

The target of the next data set is T1, rat CB2 (Rattus norvegicus, UniProt Q9QZN9).
T1 sequence (Q9QZN9 1-360): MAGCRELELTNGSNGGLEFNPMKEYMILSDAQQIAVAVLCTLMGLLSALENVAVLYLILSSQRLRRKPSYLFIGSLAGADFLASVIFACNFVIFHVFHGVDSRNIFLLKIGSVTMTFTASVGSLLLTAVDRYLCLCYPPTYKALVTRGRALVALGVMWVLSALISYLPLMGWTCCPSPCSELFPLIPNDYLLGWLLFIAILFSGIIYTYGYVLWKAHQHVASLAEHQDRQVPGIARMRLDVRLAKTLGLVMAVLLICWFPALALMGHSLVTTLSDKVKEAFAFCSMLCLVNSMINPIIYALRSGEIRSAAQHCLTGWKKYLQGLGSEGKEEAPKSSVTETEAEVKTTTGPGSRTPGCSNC
Description: rat CB2 radioligand binding assay ([3H]CP 55,940 competition). Also noted: expressed in transfected cells; host or cells: HEK293. Conditions: HEK293 membranes, 0.5 nM [3H]CP 55,940. The method in brief:
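Competition binding against 0.5 nM [3H]CP 55,940 (pH 7.4 buffer with 0.5 mg/mL BSA, 30 °C, 45 min), with displacers spanning 0.01 nM–10 μM at five concentrations. Receptor source: stably transfected HEK293 membranes, 20 μg/well. Nonspecific binding defined by 10 μM unlabeled CP 55,940; readout by filtration and counting.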

Another data set has as its target T2, human CB2 receptors (Homo sapiens, UniProt P34972).
T2 construct: expressed in transfected cells; host or cells: HEK293
Description: human CB2 radioligand binding assay ([3H]CP 55,940 competition). The following applies: HEK293 membranes, 0.5 nM [3H]CP 55,940. In short, it runs like this:
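Displacement of 0.5 nM [3H]CP 55,940 over 0.01 nM-10 μM test compound, measured on human CB2 membranes from stably transfected HEK293 cells. Incubation 90 min at 30 °C in Tris/EDTA/MgCl2/BSA, pH 7.4, then filter-bound radioactivity counted; 10 μM unlabeled CP 55,940 defined nonspecific binding.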

Another data set has as its target T3, Rat CB1 (Rattus norvegicus, UniProt P20272).
T3 construct: expressed in transfected cells; host or cells: HEK
Description: rat CB1 cyclase functional assay (HitHunter cAMP). It counts as cell-based. Conditions: HEK cells, forskolin 37 μM. The procedure:
The cyclase functional assays were performed using the HitHunter™ cAMP assay kit from DiscoveRx (Fremont, Calif.) according to vendor's protocol. Briefly, HEK cells expressing CB2 or CB1 receptors (rat or human) were detached using cell dissociation buffer (Invitrogen, Carlsbad, Calif.), dispersed and placed in suspension at 10,000 cells per well in 96 well plates prior to the assay. Cell suspensions were incubated at 37° C. for 20 min with variable concentrations of test ligands and or 10 μM CP 55,940-positive control in the presence of a fixed concentration of forskolin (18 μM for rat CB2 and 37 μM for rat CB1) in Dulbescco's phosphate-buffered saline (Invitrogen, Carlsbad, Calif.) supplemented with bovine serum albumin (0.01% final concentration). The reactions were terminated by the addition of lysis buffer and the luminescence was detected following the procedure according to the manufacturer's instructions. EC50 values were calculated using sigmoidal dose-response curve fitting from Prism (GraphPad).

Setting [2] is: read-out: Rat CB1 cyclase (EC50).

T3 sequence (P20272 whole entry): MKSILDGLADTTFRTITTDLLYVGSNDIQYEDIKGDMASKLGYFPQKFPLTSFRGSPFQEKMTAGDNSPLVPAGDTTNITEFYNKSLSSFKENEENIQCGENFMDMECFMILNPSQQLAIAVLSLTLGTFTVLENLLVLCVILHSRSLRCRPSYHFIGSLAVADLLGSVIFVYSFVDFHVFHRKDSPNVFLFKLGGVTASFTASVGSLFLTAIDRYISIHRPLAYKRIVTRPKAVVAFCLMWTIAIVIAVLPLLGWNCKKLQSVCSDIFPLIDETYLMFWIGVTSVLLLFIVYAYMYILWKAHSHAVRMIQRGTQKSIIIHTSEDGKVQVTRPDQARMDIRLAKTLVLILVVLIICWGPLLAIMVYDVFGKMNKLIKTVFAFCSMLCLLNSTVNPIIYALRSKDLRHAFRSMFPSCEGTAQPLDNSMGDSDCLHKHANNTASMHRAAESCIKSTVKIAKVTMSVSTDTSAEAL
T2 sequence (P34972 whole entry): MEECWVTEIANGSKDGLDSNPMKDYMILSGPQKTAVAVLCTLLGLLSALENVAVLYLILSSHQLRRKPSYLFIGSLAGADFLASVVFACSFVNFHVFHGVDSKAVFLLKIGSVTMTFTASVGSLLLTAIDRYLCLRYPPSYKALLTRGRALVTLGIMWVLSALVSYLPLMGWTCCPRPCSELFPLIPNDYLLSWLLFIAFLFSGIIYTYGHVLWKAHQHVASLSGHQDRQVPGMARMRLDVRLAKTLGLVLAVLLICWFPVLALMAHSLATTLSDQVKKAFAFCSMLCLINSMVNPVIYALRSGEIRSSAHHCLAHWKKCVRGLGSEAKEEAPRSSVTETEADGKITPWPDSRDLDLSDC

Broadly, the clearance is the volume of plasma or blood freed of the substance per unit of time. By half-life is commonly meant the time needed for the level to fall by half in the phase considered. A higher half-life goes with slow decline. One may read the bioavailability as the share of a dose that reaches the circulation, judged against a reference dose that is usually intravenous. With `CCCCn1/c(=N/C(=O)c2cc(C(F)(F)F)ccc2OC)cc(C(C)(C)C)n1C` [E, reference compound], in data set [1] (in vivo, 3 micromole/kg), the clearance is 33.3 mL/min/kg and the half-life was 2.9 h. In data set [1] (in vivo, 10 micromole/kg), the bioavailability turned out to be 9%.
By Ki is commonly meant a dissociation constant, usually derived from enzyme kinetics or from competition with a known ligand. Regarding `CCCCCn1/c(=N/C(=O)c2cc(C(F)(F)F)ccc2OCC(C)(C)O)cc(C(C)(C)C)n1C` [Example 99, N-[(3E)-5-tert-butyl-1-methyl-2-pentyl-1,2-dihydro-3H-pyrazol-3-ylidene]-2-(2-hydroxy-2-methylpropoxy)-5-(trifluoromethyl)benzamide], the Ki worked out at 4.4 nM on rat CB2 (rat CB2 (Ki, nM)) and 9.2 nM on human CB2 receptors (human CB2 (Ki, nM)). In data set [1] (in vivo, 3 micromole/kg), this compound gave a half-life of 5.6 h. For the same compound, the clearance in data set [1] was 18.3 mL/min/kg. In addition, in data set [1], the bioavailability was 37%.
Take `Cn1c(C(C)(C)C)c/c(=N\C(=O)c2cccc(C(F)(F)F)c2F)n1CC1CC1` [A, reference compound]: in data set [1] (in vivo, 3 micromole/kg), the clearance is 10 mL/min/kg and the half-life is 0.7 h. Moreover, the bioavailability in data set [1] (in vivo, 10 micromole/kg) came to 26%.
For orientation: EC50 means the concentration that produces a half-maximal response. On to `CCCCn1cc(C(C)(C)C)o/c1=N\C(=O)c1cc(C(F)(F)F)ccc1OC[C@@H]1CCCN1C` [Example 76, N-[(2Z)-3-butyl-5-tert-butyl-1,3-oxazol-2(3H)-ylidene]-2-{[(2S)-1-methylpyrrolidin-2-yl]methoxy}-5-(trifluoromethyl)benzamide], for which the Ki is 243 nM on rat CB2 (read-out: rat CB2 (Ki)) and 176 nM on human CB2 receptors (read-out: human CB2 (Ki)). The EC50 at Rat CB1 (setting [2]) was 2030 nM.
Regarding `COc1ccc(C(F)(F)F)cc1C(=O)/N=c1\cc(C(C)(C)C)n(C)n1CC1CC1` [F, reference compound], in data set [1] (in vivo, 3 micromole/kg), the clearance is 63.3 mL/min/kg and the half-life was 2.1 h. This compound also showed a bioavailability in data set [1] (in vivo, 10 micromole/kg) of 11%.
In the case of `Cn1c(C(C)(C)C)c/c(=N\C(=O)c2cc([N+](=O)[O-])ccc2OCC(C)(C)O)n1C[C@H]1CCCO1` [Example 121, N-{(3E)-5-tert-butyl-1-methyl-2-[(2R)-tetrahydrofuran-2-ylmethyl]-1,2-dihydro-3H-pyrazol-3-ylidene}-2-(2-hydroxy-2-methylpropoxy)-5-nitrobenzamide], the Ki at rat CB2 (rat CB2 (Ki, nM)) worked out at 7.7 nM; on human CB2 receptors (human CB2 (Ki, nM)), 13 nM. In addition, the EC50 on Rat CB1 (setting [2]) was found to be 4710 nM.
For `Cn1c(C(C)(C)C)c/c(=N\C(=O)c2cc(C(F)(F)F)ccc2OCC(C)(C)O)n1CC1CC1` [Example 71, N-[(3E)-5-tert-butyl-2-(cyclopropylmethyl)-1-methyl-1,2-dihydro-3H-pyrazol-3-ylidene]-2-(2-hydroxy-2-methylpropoxy)-5-(trifluoromethyl)benzamide], the Ki on rat CB2 (rat CB2 (Ki, nM)) turned out to be 8.5 nM; on human CB2 receptors (human CB2 (Ki, nM)) it was 38 nM. For the same compound, the half-life in data set [1] (in vivo, 3 micromole/kg) was 4.7 h. This compound had a clearance in data set [1] of 5 mL/min/kg. The compound also had a bioavailability in data set [1] of 46%. Also, at Rat CB1 (Rat CB1 cyclase (EC50, nM)), the EC50 was determined as 4280 nM.
Regarding `CCCCn1/c(=N/C(=O)c2cc(C(F)(F)F)ccc2OCC(C)(C)OC)cc(C(C)(C)C)n1C` [G, reference compound], in data set [1] (in vivo, 3 micromole/kg), the clearance is 45 mL/min/kg and the half-life was 1.5 h. For the same compound, the bioavailability in data set [1] (in vivo, 10 micromole/kg) is 5%.
For `CCCCn1/c(=N/C(=O)c2cc(C(F)(F)F)ccc2Cl)cc(C(C)(C)C)n1C` [D, reference compound] the same measures were 56.7 mL/min/kg, 0.3 h and 10%.
For `CC(C)Cn1/c(=N/C(=O)c2cccc(C(F)(F)F)c2F)cc(C(C)(C)C)n1C` [C, reference compound] the same measures were 26.7 mL/min/kg, 0.8 h and 45%.
Regarding `Cn1c(C(C)(C)C)c/c(=N\C(=O)c2cc(C(F)(F)F)ccc2OCC(C)(C)C(=O)O)n1C[C@H]1CCCO1` [Example 124, 3-[2-[({(3E)-5-tert-butyl-1-methyl-2-[(2R)-tetrahydrofuran-2-ylmethyl]-1,2-dihydro-3H-pyrazol-3-ylidene}amino)carbonyl]-4-(trifluoromethyl)phenoxy]-2,2-dimethylpropanoic acid], the Ki on rat CB2 (rat CB2 (Ki, nM)) amounted to 43 nM; at human CB2 receptors (read-out: human CB2 (Ki)), 185 nM. At Rat CB1 (setting [2]), the EC50 was greater than 27000 nM.
Turning to `CCCCn1/c(=N/C(=O)c2cc(Cl)ccc2OC)cc(C(C)(C)C)n1C` [B, reference compound], in data set [1] (in vivo, 3 micromole/kg), the clearance is 40 mL/min/kg and the half-life was 1.7 h. In data set [1] (in vivo, 10 micromole/kg), this compound had a bioavailability of 11%.
`Cn1c(C(C)(C)C)c/c(=N\C(=O)c2cc(C(F)(F)F)ccc2OC[C@@H]2CCC(=O)N2)n1CC1CCC1` [Example 120, N-[(3E)-5-tert-butyl-2-(cyclobutylmethyl)-1-methyl-1,2-dihydro-3H-pyrazol-3-ylidene]-2-{[(2S)-5-oxopyrrolidin-2-yl]methoxy}-5-(trifluoromethyl)benzamide]: the Ki worked out at 61 nM on rat CB2 (rat CB2 (Ki, nM)) and 116 nM on human CB2 receptors (read-out: human CB2 (Ki)). Besides, the EC50 on Rat CB1 (setting [2]) was greater than 27000 nM.
As to `Cn1c(C(C)(C)C)c/c(=N\C(=O)c2cc(C(F)(F)F)ccc2OCC(C)(C)O)n1CC1CCOCC1` [Example 95, N-[(3E)-5-tert-butyl-1-methyl-2-(tetrahydro-2H-pyran-4-ylmethyl)-1,2-dihydro-3 H-pyrazol-3-ylidene]-2-(2-hydroxy-2-methylpropoxy)-5-(trifluoromethyl)benzamide], the Ki on rat CB2 (read-out: rat CB2 (Ki)) was 331 nM; on human CB2 receptors (read-out: human CB2 (Ki)) it was greater than 1000 nM.
On to `C[C@H](O)[C@H](C)Oc1ccc(C(F)(F)F)cc1C(=O)/N=c1\cc(C(C)(C)C)n(C)n1C[C@H]1CCCO1` [Example 103, N-{(3E)-5-tert-butyl-1-methyl-2-[(2R)-tetrahydrofuran-2-ylmethyl]-1,2-dihydro-3 H-pyrazol-3-ylidene}-2-{[(1S,2S)-2-hydroxy-1-methylpropyl]oxy}-5-(trifluoromethyl)benzamide], for which the Ki on rat CB2 (rat CB2 (Ki, nM)) was determined as 1.7 nM; at human CB2 receptors (human CB2 (Ki, nM)), 3.8 nM.
Turning to `C[C@@H](O)[C@@H](C)Oc1ccc(C(F)(F)F)cc1C(=O)/N=c1\cc(C(C)(C)C)n(C)n1C[C@H]1CCCO1` [Example 104, N-{(3E)-5-tert-butyl-1-methyl-2-[(2R)-tetrahydrofuran-2-ylmethyl]-1,2-dihydro-3 H-pyrazol-3-ylidene}-2-{[(1R,2R)-2-hydroxy-1-methylpropyl]oxy}-5-(trifluoromethyl)benzamide], the Ki on rat CB2 (read-out: rat CB2 (Ki)) was 317 nM; at human CB2 receptors (read-out: human CB2 (Ki)), greater than 1000 nM.
In the case of `CC(C)[C@H](O)COc1ccc(C(F)(F)F)cc1C(=O)/N=c1\cc(C(C)(C)C)n(C)n1C[C@H]1CCCO1` [Example 111, N-{(3E)-5-tert-butyl-1-methyl-2-[(2R)-tetrahydrofuran-2-ylmethyl]-1,2-dihydro-3H-pyrazol-3-ylidene}-2-{[(2S)-2-hydroxy-3-methylbutyl]oxy}-5-(trifluoromethyl)benzamide], the Ki at rat CB2 (rat CB2 (Ki, nM)) worked out at 1 nM; at human CB2 receptors (human CB2 (Ki, nM)), 1.8 nM.
For `CN1CCC[C@H]1COc1ccc(C(F)(F)F)cc1C(=O)/N=C1\OC(C(C)(C)C)CN1C[C@H]1CCCO1` (stereo partly drawn) [Example 73, N-{(2Z)-5-tert-butyl-3-[(2R)-tetrahydrofuran-2-ylmethyl]-1,3-oxazolidin-2-ylidene}-2-{[(2S)-1-methylpyrrolidin-2-yl]methoxy}-5-(trifluoromethyl)benzamide], the Ki was determined as 230 nM at rat CB2 (read-out: rat CB2 (Ki)) and 291 nM on human CB2 receptors (read-out: human CB2 (Ki)).
